The numbers were not newly measured in US11737956B2, “Composition for intracanal medication” (MARUCHI, priority 2016, dated 2023), which cites them from elsewhere.

Molecules are shown by their SMILES.

The conditions of the data set: very small amount of dissolution in water.

Take `[Ca+2].[OH-].[OH-]` [calcium hydroxide]: the pH of water is 12.4.
